US7300946B2, “N-(substituted arylmethyl)-4-(disubstituted methyl) piperidines and pyridines” (Bayer CropScience AG, priority 2002, dated 2007)

System: tobacco budworm (Heliothis virescens [Fabricius])
Experiment: surface-treated diet test against the tobacco budworm
Format: in vivo
Settings: tobacco budworm second instar larvae, 0.25 millimoles of candidate insecticide on the surface of the diet, five-day exposure; for Percent Mortality: compared to total number of insects infested; for Percent Growth Inhibition: inhibition of insect weight relative to untreated controls
Procedure, shortened: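 Wheat germ artificial diet surface-treated with 40 µL of 50 mM DMSO stock diluted 1:7 in 1:1 water/acetone (0.25 millimolar on diet), or sub-multiples for rate tests. One second-instar larva per well, 25° C, 60% RH, 5 days; percent weight inhibition vs DMSO controls and percent mortality.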

CCn1nnc(-c2ccc(CN3CCC(C(OC(=O)Nc4cc(Cl)cc(Cl)c4)c4ccc(C(F)(F)F)cc4)CC3)cc2)n1 (stereo not drawn) [Compound 284]
Percent Mortality (surface-treated diet): 100%
Percent Growth Inhibition (surface-treated diet): 100%

O=C(CCN1CCC(=C(c2ccccc2)c2ccccc2)CC1)c1ccccc1 [Compound 85]
Percent Mortality (surface-treated diet): 100%
Percent Growth Inhibition (surface-treated diet): 100%

O=C(NCc1ccc(Cl)cc1Cl)OC(c1ccc(C(F)(F)F)cc1)C1CCN(Cc2ccc(Oc3ccccn3)cc2)CC1 (stereo not drawn) [Compound 678]
Percent Mortality (surface-treated diet): 100%
Percent Growth Inhibition (surface-treated diet): 100%

O=C(Nc1cc(Cl)nc(Cl)c1)OC(c1ccc(C(F)(F)F)cc1)C1CCN(Cc2ccc(Oc3ccccn3)cc2)CC1 (stereo not drawn) [Compound 451]
Percent Mortality (surface-treated diet): 100%
Percent Growth Inhibition (surface-treated diet): 100%

CCn1nnc(-c2ccc(CN3CCC(C(OC(=O)Nc4ccc(Cl)cc4)c4ccc(Cl)c(Cl)c4)CC3)cc2)n1 (stereo not drawn) [Compound 572]
Percent Mortality (surface-treated diet): 100%
Percent Growth Inhibition (surface-treated diet): 100%

Fc1ccc(C(=C2CCN(Cc3ccc(Oc4ccccn4)cc3)CC2)c2ccc(F)cc2)cc1 [Compound 810]
Percent Mortality: 100%
Percent Growth Inhibition: 100%

COc1ccc(CN2CCC(=C(c3ccc(OC(F)(F)F)cc3)c3ccc(OC(F)(F)F)cc3)CC2)cc1 [Compound 42]
Percent Mortality (surface-treated diet): 100%
Percent Growth Inhibition (surface-treated diet): 100%

O=C(Nc1cccnc1)OC(c1ccc(C(F)(F)F)cc1)C1CCN(Cc2ccc(Oc3ccccn3)cc2)CC1 (stereo not drawn) [Compound 444]
Percent Mortality (surface-treated diet): 0%
Percent Growth Inhibition (surface-treated diet): 96%

FC(F)(F)c1ccc(C(Oc2ccc(C(F)(F)F)cn2)C2CCN(Cc3ccc(Oc4ccccn4)cc3)CC2)cc1 (stereo not drawn) [Compound 437]
Percent Mortality (surface-treated diet): 100%
Percent Growth Inhibition (surface-treated diet): 100%

O=C(Nc1ccc(F)c(F)c1)OC(c1ccc(C(F)(F)F)cc1)C1CCN(Cc2ccc(Oc3ccccn3)cc2)CC1 (stereo not drawn) [Compound 237]
Percent Mortality (surface-treated diet): 100%
Percent Growth Inhibition (surface-treated diet): 100%

O=C(Nc1cc(F)cc(F)c1)OC(c1ccc(C(F)(F)F)cc1)C1CCN(Cc2ccc(-c3ccccn3)cc2)CC1 (stereo not drawn) [Compound 628]
Percent Mortality (surface-treated diet): 100%
Percent Growth Inhibition (surface-treated diet): 100%

O=C(Nc1cc(F)cc(F)c1)OC(c1ccc(C(F)(F)F)cc1)C1CCN(Cc2ccc(Oc3cccc(Cl)n3)cc2)CC1 (stereo not drawn) [Compound 685]
Percent Mortality (surface-treated diet): 100%
Percent Growth Inhibition (surface-treated diet): 100%

CCCOc1ccc(CN2CCC(C(OC(=O)Nc3ccc(F)cc3)c3ccc(F)cc3)CC2)cc1 (stereo not drawn) [Compound 476]
Percent Mortality (surface-treated diet): 100%
Percent Growth Inhibition (surface-treated diet): 100%

CCn1nnc(-c2ccc(CN3CCC(C(OC(=O)Nc4ccc(Cl)c(Cl)c4)c4ccccc4Cl)CC3)cc2)n1 (stereo not drawn) [Compound 568]
Percent Mortality (surface-treated diet): 100%
Percent Growth Inhibition (surface-treated diet): 100%

CC(C)NC(=O)Oc1ccc(C[N+]2([O-])CCC(=C(c3ccc(C(F)(F)F)cc3)c3ccc(C(F)(F)F)cc3)CC2)cc1 (stereo not drawn) [Compound 830]
Percent Mortality: 100%
Percent Growth Inhibition: 100%

N#Cc1cccnc1Oc1ccc(CN2CCC(C(OC(=O)Nc3ccc(Cl)cc3)c3ccc(C(F)(F)F)cc3)CC2)cc1 (stereo not drawn) [Compound 670]
Percent Mortality (surface-treated diet): 100%
Percent Growth Inhibition (surface-treated diet): 100%

Cn1nnc(-c2ccc(CN3CCC(=C(c4ccc(Cl)cc4)c4ccc(C(F)(F)F)cc4)CC3)cc2)n1 [Compound 74]
Percent Mortality (surface-treated diet): 100%
Percent Growth Inhibition (surface-treated diet): 100%

COC(=O)c1cccc(NC(=O)OC(c2ccc(Cl)cc2)C2CCN(Cc3ccc(Oc4ccccn4)cc3)CC2)c1 (stereo not drawn) [Compound 638]
Percent Mortality (surface-treated diet): 100%
Percent Growth Inhibition (surface-treated diet): 100%

CCCOc1ccc(CN2CCC(C(OC(=O)Nc3ccc(C(F)(F)F)cc3)c3ccc(F)cc3)CC2)cc1 (stereo not drawn) [Compound 478]
Percent Mortality (surface-treated diet): 100%
Percent Growth Inhibition (surface-treated diet): 100%

CCON=Cc1ccc(CN2CCC(=C(c3ccc(C(F)(F)F)cc3)c3ccc(C(F)(F)F)cc3)CC2)cc1 [Compound 60]
Percent Mortality (surface-treated diet): 100%
Percent Growth Inhibition (surface-treated diet): 100%

FC(F)(F)c1ccc(C(Oc2cc(C(F)(F)F)ccn2)C2CCN(Cc3ccc(Oc4ccccn4)cc3)CC2)cc1 (stereo not drawn) [Compound 438]
Percent Mortality (surface-treated diet): 100%
Percent Growth Inhibition (surface-treated diet): 100%

[O-][N+]1(Cc2ccc(Oc3ncccn3)cc2)CCC(=C(c2ccc(C(F)(F)F)cc2)c2cccc(F)c2)CC1 (stereo not drawn) [Compound 848]
Percent Mortality: 83%
Percent Growth Inhibition: 100%

CCn1nnc(-c2ccc(CN3CCC(C(OC(=O)Nc4ccc(I)cc4)c4ccc(OC(F)(F)F)cc4)CC3)cc2)n1 (stereo not drawn) [Compound 271]
Percent Mortality (surface-treated diet): 100%
Percent Growth Inhibition (surface-treated diet): 100%

COC(=O)N(c1ccc(CN2CCC(C(OC(=O)Nc3cc(F)cc(F)c3)c3ccc(C(F)(F)F)cc3)CC2)cc1)c1ccccn1 (stereo not drawn) [Compound 516]
Percent Mortality (surface-treated diet): 100%
Percent Growth Inhibition (surface-treated diet): 100%

CCCOc1ccc(CN2CCC(C(OC(=O)Nc3ccc(F)cc3)c3ccc(Cl)cc3)CC2)cc1 (stereo not drawn) [Compound 471]
Percent Mortality (surface-treated diet): 100%
Percent Growth Inhibition (surface-treated diet): 100%

CCON=Cc1ccc(CN2CCC(C(OC(=O)Nc3c(F)cccc3F)c3ccc(C(F)(F)F)cc3)CC2)cc1 (stereo not drawn) [Compound 199]
Percent Mortality (surface-treated diet): 100%
Percent Growth Inhibition (surface-treated diet): 100%

CCON=Cc1ccc(CN2CCC(C(OC(=O)N(C)C)c3ccc(C(F)(F)F)cc3)CC2)cc1 (stereo not drawn) [Compound 773]
Percent Mortality: 100%
Percent Growth Inhibition: 100%

O=C(Nc1cc(F)cc(F)c1)OC(c1ccc(C(F)(F)F)cc1)C1CCN(Cc2ccc(Oc3ncccc3C(F)(F)F)cc2)CC1 (stereo not drawn) [Compound 689]
Percent Mortality (surface-treated diet): 100%
Percent Growth Inhibition (surface-treated diet): 100%

CCON=Cc1ccc(CN2CCC(C(OC(=O)Nc3ccc(Cl)c(C(F)(F)F)c3)c3ccc(C(F)(F)F)cc3)CC2)cc1 (stereo not drawn) [Compound 207]
Percent Mortality (surface-treated diet): 100%
Percent Growth Inhibition (surface-treated diet): 100%

O=C(Nc1cc(F)cc(F)c1)OC(c1ccc(Cl)c(Cl)c1)C1CCN(Cc2ccc(Oc3ncccn3)cc2)CC1 (stereo not drawn) [Compound 723]
Percent Mortality: 100%
Percent Growth Inhibition: 100%

[O-][N+]1(Cc2ccc(Oc3cccc(Cl)n3)cc2)CCC(=C(c2ccc(C(F)(F)F)cc2)c2ccc(C(F)(F)F)cc2)CC1 (stereo not drawn) [Compound 108]
Percent Mortality (surface-treated diet): 100%
Percent Growth Inhibition (surface-treated diet): 100%

CCn1nnc(-c2ccc(CN3CCC(C(OC(=O)c4ccc(OC(F)(F)F)cc4)c4ccc(OC(F)(F)F)cc4)CC3)cc2)n1 (stereo not drawn) [Compound 308]
Percent Mortality (surface-treated diet): 100%
Percent Growth Inhibition (surface-treated diet): 92%

CC(C)NC(=O)OC(c1ccc(C(F)(F)F)cc1)C1CCN(Cc2ccc(Oc3ccccn3)cc2)CC1 (stereo not drawn) [Compound 429]
Percent Mortality (surface-treated diet): 100%
Percent Growth Inhibition (surface-treated diet): 100%

[O-][N+]1(Cc2ccc(Oc3ccccn3)cc2)CCC(=C(c2ccc(F)cc2)c2ccc(F)cc2)CC1 (stereo not drawn) [Compound 842]
Percent Mortality: 100%
Percent Growth Inhibition: 100%

[O-][N+]1(Cc2ccc(Oc3ccc(Cl)cn3)cc2)CCC(=C(c2ccc(C(F)(F)F)cc2)c2ccc(C(F)(F)F)cc2)CC1 (stereo not drawn) [Compound 107]
Percent Mortality (surface-treated diet): 100%
Percent Growth Inhibition (surface-treated diet): 100%

N#Cc1cccnc1Oc1ccc(CN2CCC(C(OC(=O)Nc3ccc(Cl)cc3)c3ccc(OC(F)(F)F)cc3)CC2)cc1 (stereo not drawn) [Compound 707]
Percent Mortality: 100%
Percent Growth Inhibition: 100%

[O-][N+]1(Cc2ccc(Oc3ccccn3)cc2)CCC(=C(c2ccc(C(F)(F)F)cc2)c2ccc(C(F)(F)F)cc2)CC1 (stereo not drawn) [Compound 106]
Percent Mortality (surface-treated diet): 100%
Percent Growth Inhibition (surface-treated diet): 100%

O=C(Nc1cc(F)cc(F)c1)OC(c1ccc(C(F)(F)F)cc1)C1CCN(Cc2ccc(-n3cccn3)cc2)CC1 (stereo not drawn) [Compound 556]
Percent Mortality (surface-treated diet): 100%
Percent Growth Inhibition (surface-treated diet): 100%

CCn1nnc(-c2ccc(CN3CCC(C(OC(=O)Nc4ccc(C(F)(F)F)cc4)c4cccc(F)c4)CC3)cc2)n1 (stereo not drawn) [Compound 587]
Percent Mortality (surface-treated diet): 100%
Percent Growth Inhibition (surface-treated diet): 100%

O=C(Nc1cc(Cl)ccc1Cl)OC(c1ccc(C(F)(F)F)cc1)C1CCN(Cc2ccc(Oc3ccccn3)cc2)CC1 (stereo not drawn) [Compound 231]
Percent Mortality (surface-treated diet): 100%
Percent Growth Inhibition (surface-treated diet): 100%

Cn1nnc(-c2ccc(CN3CCC(C(NC(=O)Oc4cccc(F)c4)c4ccc(OC(F)(F)F)cc4)CC3)cc2)n1 (stereo not drawn) [Compound 352]
Percent Mortality (surface-treated diet): 83%
Percent Growth Inhibition (surface-treated diet): 100%

CCOC(=O)N(C)c1ccc(CN2CCC(=C(c3ccc(C(F)(F)F)cc3)c3ccc(C(F)(F)F)cc3)CC2)cc1 [Compound 56]
Percent Mortality (surface-treated diet): 100%
Percent Growth Inhibition (surface-treated diet): 100%

CCn1nnc(-c2ccc(C[N+]3([O-])CCC(=C(c4ccc5c(c4)OC(F)(F)O5)c4ccc5c(c4)OC(F)(F)O5)CC3)cc2)n1 (stereo not drawn) [Compound 115]
Percent Mortality (surface-treated diet): 100%
Percent Growth Inhibition (surface-treated diet): 100%

CCON=Cc1ccc(CN2CCC(C(OC(=O)Nc3ccc(Cl)cc3Cl)c3ccc(C(F)(F)F)cc3)CC2)cc1 (stereo not drawn) [Compound 190]
Percent Mortality (surface-treated diet): 100%
Percent Growth Inhibition (surface-treated diet): 100%

O=C(Nc1cc(F)cc(F)c1)OC(c1ccc(C(F)(F)F)cc1)C1CCN(Cc2ccc(Oc3cc(C(F)(F)F)ccn3)cc2)CC1 (stereo not drawn) [Compound 690]
Percent Mortality (surface-treated diet): 100%
Percent Growth Inhibition (surface-treated diet): 100%

CCON=Cc1ccc(CN2CCC(C(OC(=O)Nc3cccc(F)c3)c3ccc(C(F)(F)F)cc3)CC2)cc1 (stereo not drawn) [Compound 535]
Percent Mortality (surface-treated diet): 100%
Percent Growth Inhibition (surface-treated diet): 100%

CNC(=O)Oc1ccc(CN2CCC(=C(c3ccc(OC(F)(F)F)cc3)c3ccc(OC(F)(F)F)cc3)CC2)cc1 [Compound 791]
Percent Mortality: 100%
Percent Growth Inhibition: 100%

Cn1nnc(-c2ccc(CN3CCC(C(Oc4ccc(Cl)nn4)c4ccc(OC(F)(F)F)cc4)CC3)cc2)n1 (stereo not drawn) [Compound 453]
Percent Mortality (surface-treated diet): 83%
Percent Growth Inhibition (surface-treated diet): 100%
